Reference: US6500845B1, “Lactam derivatives as immunomodulating agents” (Gruenenthal GmbH, priority 1994, dated 2002)
Converted amounts (≈) assume the structure as drawn.

Assays:
[1] = tested on: IL-2 release in vivo (T-lymphocytes stimulated by staphylococcal enterotoxin B); design: species or system Balb/c mice; settings: mouse; for ED40 (dosage reducing serum IL-2 concentrations by 40%): ip
[2] = tested on: LPS-induced TNF-α release, human mononuclear cells; experiment: LPS-induced TNF-α release from human mononuclear cells of the peripheral blood; assay type: cell-based; settings: 20 hours incubation; for Inhibition of TNF-α release in (%): concentration of 50 μ/ml, LPS 2.5 μg; for IC50: Homo sapiens, LPS-induced, read-out: IC50 (50% inhibition in the release of TNF-α)
Source text: The release of cytokines from human mononuclear cells of the peripheral blood, i.e. T-cells, B-cells and monocytes, can be studied in vitro after stimulation by lipopolysaccharide (LPS) or the toxic shock syndrome toxin-1 (TSST-1). LPS is a component of the bacterial cell wall and stimulates monocytes and macrophages. TSST-1 is a bacterial superantigen that stimulates T-cells as well as monocytes/macrophages. Superantigens bind to the Vβ chain of the T-cell receptor and to the MHC class II and thus simulate the recognition by a specific T-cell receptor of an antigen presented by the MHC class II. Activation of cells by LPS or TSST-1 induces the release of TNF-α, IFN-γ and other cytokines.
Mononuclear cells were prepared from the heparinized blood of at least three voluntary donors. For this purpose, 20 ml blood samples each were separated according to well known procedures using a Ficoll-Paque gradient. The cells were harvested and washed three times with a cell culture medium. This cell culture medium was composed of RPMI 1640 medium supplemented with 2 mM of glutamine (Life Technologies, Eggenstein, Germany), 10% fetal calf serum (Life Technologies), 50 μg/ml of streptomycin (Sigma, Deisenhofen, Germany), 50 IU/ml of penicillin (Sigma) and 100 μM of b-mercaptoethanol (Merck, Darmstadt, Germany). The mononuclear cells were suspended in 15 ml of cell culture medium and separated in 1 ml fractions in sterile 24-well incubation plates (Sigma). 1 μl of dimethylsulfoxide (DMSO) or 1 μl of a DMSO-solution containing 5 ′ by weight of a compound according to the invention was added to each of the 1 ml fractions. After incubation for 1 hour in a CO2-incubator (5% CO2, 90% humidity), 2.5 μg of LPS (from E. coli 0127: B8, Sigma) or 0.1 μg of TSST-1 (Sigma) were added to each of the fractions containing a compound according to the invention. Incubation of the cultures was continued for 20 hours. The concentrations of TNF-α and IFN-γ in the cell culture supernatants were determined with commercial ELISA-tests (Boehringer Mannheim, Germany; Endogen, Boston, Mass.).
The IC50 value is the concentration in μg/ml which produces a 50% inhibition in the release of TFN-α.

[3] = tested on: TSST-1-induced release of IFN-γ, human mononuclear cells; assay type: cell-based
[4] = tested on: TSST-1-induced release of TNF-α, human mononuclear cells; assay type: cell-based

Row | Structure (SMILES) | Maximum inhibition of serum IL-2 increase in % [1] [%] | ED40 (dosage reducing serum IL-2 concentrations by 40%) [1] | Inhibition of TNF-α release in (%) [2] [%] | IC50 [2] [µg/mL] | Effect on TSST-1-induced release of IFN-γ [3] | Effect on TSST-1-induced release of TNF-α [4] | melting point [°C]
1 | CC1(n2sc3ccccc3c2=O)CCCNC1=O (stereo not drawn) [Example 4, 2-(3-methyl-2-oxo-piperidin-3-yl)-benzo[d]isothiazol-3-one] | 52 ± 3 | <10 mg/kg i.p. | 93 ± 9 |  |  |  | 
2 | CC1(N2Cc3ccccc3C2=O)CCC(=O)NC1=O (single isomer, unassigned; (-)) [Example 3 (−) enantiomer, (−)-3-Methyl-3-(1-oxo-1,3-dihydro-isoindol-2-yl)-piperidine-2,6-dione] | 54 ± 5 | 297 mg/kg i.p. | 82 ± 5 | 8 (≈ 31 µM) |  |  | 
3 | O=C1CCC(N2C(=O)c3ccccc3C2=O)C(=O)N1 (stereo not drawn) [Thalidomide, reference compound] | 56 ± 10 | 171 mg/kg i.p. | 54 ± 7 | 50 (≈ 194 µM) |  |  | 
4 | CC1(n2[se]c3ccccc3c2=O)CCCNC1=O (stereo not drawn) [Example 1, 2-(3-Methyl-2-oxo-piperidin-3-yl)-benzo[d]isoselenazol-3-one] | 43 ± 5 | ca. 20^ mg/kg i.p. | 93 ± 1 |  |  |  | 
5 | CC1(N2Cc3ccccc3C2=O)CCC(=O)NC1=O (racemic) [Example 2, 3-Methyl-3-(1-oxo-1,3-dihydro-isoindol-2-yl)-piperidine-2,6-dione] | 56 ± 3 | 112 mg/kg i.p. | 72 ± 8 | 10 (≈ 38.7 µM) | enhanced compared to thalidomide | enhanced compared to thalidomide | 231 to 232
